Measured values: patent US20160251725A1, “METHOD FOR PREDICTING CLINICAL TOXICITY AND OUTCOME” (AGENCY FOR SCIENCE, TECHNOLOGY AND RESEARCH, priority 2013, published 2016)
Read-outs that look alike come from different tables or passages of the source.

Columns and labels:
mRCC patients [1] = assay: Progression-free and overall survival on first-line sunitinib (Kaplan-Meier, Cox regression); type: in vivo, human; conditions: for Overall survival HR multivariate / Progression-free survival HR multivariate: starting dose as covariate
Experimental: (§1) Twelve patients in this study received a starting dose of 50 mg daily. Six patients started with 25 mg daily due to advanced age or patients' aversion to expected toxicities.
(§2) Genotype associations with toxicity events or responsive tumor were first analyzed using univariate logistic regression. Genotypes generating P<0.20 were further analyzed using multivariate logistic regression including patient age, gender, baseline ECOG status and starting dose as covariates. Progression-free survival and overall survival were estimated by means of Kaplan-Meier method, while the associations of genotypes and patient characteristics with PFS and OS were analyzed using two-tailed log rank test. The effects of genotypes on the progression-free survival and overall survival were then evaluated using multivariate Cox regression model by including genotypes and patient characteristics with P<0.05 in univariate analysis. […] In all analyses, missing data were kept missing except for baseline ECOG status, which was replaced with the median value. As this was designed as a validation study of previously observed correlations rather than an exploratory evaluation, multiple testing correction was not done.

mRCC patients [2] = assay: Tumor response to sunitinib (RECIST version 1.1), clinical benefit / primary resistance; type: in vivo, human
Experimental: as §1
Patient characteristics were also collected including age, gender, ethnicity, body weight and height, and Eastern Cooperative Oncology Group (ECOG) performance status. Memorial Sloan-Kettering Cancer Center (MSKCC) prognostic score was calculated for each patient with available data. All the collected data were de-identified by a third party before being used in statistical analysis. The follow-up period ended at the end of April, 2014.
as §2

patients = conditions: cited from earlier work; for Dose reductions: n = 96, Beuselinck et al., 2014
[3] = ABCB1 haplotype TTT/TTT (homozygous carriers)
[4] = ABCB1 haplotype TTT/TTT vs Other
[5] = ABCG2 421 C/A AA genotype, n = 65, Kim et al., 2013

CCN(CC)CCNC(=O)c1c(C)[nH]c(/C=C2\C(=O)Nc3ccc(F)cc32)c1C [sunitinib]
Median overall survival (mRCC patients [1]; ABCB1 1236 T/C CC + CT): 20 months
Median progression-free survival (mRCC patients [1]; ABCB1 1236 T/C CC + CT): 11.7 months
Median overall survival (mRCC patients [1]; ABCB1 1236 T/C TT): 10.4 months
Median progression-free survival (mRCC patients [1]; ABCB1 1236 T/C TT): 3.6 months
Overall survival HR univariate (mRCC patients [1]; ABCB1 1236 TT vs CC + CT): 1.7
Progression-free survival HR univariate (mRCC patients [1]; ABCB1 1236 TT vs CC + CT): 1.7
Overall survival HR multivariate (mRCC patients [1]; ABCB1 1236 TT vs CC + CT): 1.7
Progression-free survival HR multivariate (mRCC patients [1]; ABCB1 1236 TT vs CC + CT): 1.7
Median overall survival (mRCC patients [1]; ABCB1 2677 G/TA Other): 19.6 months
Median progression-free survival (mRCC patients [1]; ABCB1 2677 G/TA Other): 8.4 months
Median overall survival (mRCC patients [1]; ABCB1 2677 G/TA TT): 5.9 months
Median progression-free survival (mRCC patients [1]; ABCB1 2677 G/TA TT): 2.7 months
Overall survival HR univariate (mRCC patients [1]; ABCB1 2677 TT vs Other): 2.9
Progression-free survival HR univariate (mRCC patients [1]; ABCB1 2677 TT vs Other): 2.3
Overall survival HR multivariate (mRCC patients [1]; ABCB1 2677 TT vs Other): 2.0
Progression-free survival HR multivariate (mRCC patients [1]; ABCB1 2677 TT vs Other): 1.5
Median overall survival (mRCC patients [1]; ABCB1 3435 C/T CC + CT): 19.5 months
Median progression-free survival (mRCC patients [1]; ABCB1 3435 C/T CC + CT): 8.4 months
Median overall survival (mRCC patients [1]; ABCB1 3435 C/T TT): 7.2 months
Median progression-free survival (mRCC patients [1]; ABCB1 3435 C/T TT): 2.7 months
Overall survival HR univariate (mRCC patients [1]; ABCB1 3435 TT vs CC + CT): 1.6
Progression-free survival HR univariate (mRCC patients [1]; ABCB1 3435 TT vs CC + CT): 1.7
Overall survival HR multivariate (mRCC patients [1]; ABCB1 3435 TT vs CC + CT): 1.7
Progression-free survival HR multivariate (mRCC patients [1]; ABCB1 3435 TT vs CC + CT): 1.7
Median overall survival (mRCC patients [1]; ABCB1 haplotype Other): 19.6 months
Median progression-free survival (mRCC patients [1]; ABCB1 haplotype Other): 8.4 months
Median overall survival (mRCC patients [1]; [3]): 4.6 months
Median progression-free survival (mRCC patients [1]; [3]): 2.4 months
Overall survival HR univariate (mRCC patients [1]; [4]): 3.9
Progression-free survival HR univariate (mRCC patients [1]; [4]): 4.9
Overall survival HR multivariate (mRCC patients [1]; [4]): 5.0
Progression-free survival HR multivariate (mRCC patients [1]; [4]): 5.5
Overall survival HR univariate (mRCC patients [1]; Age): 1.0
Progression-free survival HR univariate (mRCC patients [1]; Age): 1.0
Median overall survival (mRCC patients [1]; Baseline ECOG 0): 32.9 months
Median progression-free survival (mRCC patients [1]; Baseline ECOG 0): 16.1 months
Median overall survival (mRCC patients [1]; Baseline ECOG 1): 19.6 months
Median progression-free survival (mRCC patients [1]; Baseline ECOG 1): 6.9 months
Overall survival HR univariate (mRCC patients [1]; Baseline ECOG 1 vs 0): 1.9
Progression-free survival HR univariate (mRCC patients [1]; Baseline ECOG 1 vs 0): 2.2
Median overall survival (mRCC patients [1]; Baseline ECOG 2): 5.7 months
Median progression-free survival (mRCC patients [1]; Baseline ECOG 2): 3.3 months
Overall survival HR univariate (mRCC patients [1]; Baseline ECOG 2 vs 0): 3.0
Progression-free survival HR univariate (mRCC patients [1]; Baseline ECOG 2 vs 0): 2.8
Median overall survival (mRCC patients [1]; Baseline ECOG 3): 15.7 months
Median progression-free survival (mRCC patients [1]; Baseline ECOG 3): 12.9 months
Overall survival HR univariate (mRCC patients [1]; Baseline ECOG 3 vs 0): 2.7
Progression-free survival HR univariate (mRCC patients [1]; Baseline ECOG 3 vs 0): 2.8
Median overall survival (mRCC patients [1]; Gender Female): 19.9 months
Median progression-free survival (mRCC patients [1]; Gender Female): 10.0 months
Median overall survival (mRCC patients [1]; Gender Male): 16.3 months
Median progression-free survival (mRCC patients [1]; Gender Male): 8.1 months
Median overall survival (mRCC patients [1]; MSKCC Good): 41.4 months
Median progression-free survival (mRCC patients [1]; MSKCC Good): 12.6 months
Median overall survival (mRCC patients [1]; MSKCC Intermediate): 19.6 months
Median progression-free survival (mRCC patients [1]; MSKCC Intermediate): 10.0 months
Overall survival HR univariate (mRCC patients [1]; MSKCC Intermediate vs Good): 2.2
Progression-free survival HR univariate (mRCC patients [1]; MSKCC Intermediate vs Good): 1.3
Median overall survival (mRCC patients [1]; MSKCC Poor): 14 months
Median progression-free survival (mRCC patients [1]; MSKCC Poor): 5.5 months
Overall survival HR univariate (mRCC patients [1]; MSKCC Poor vs Good): 3.1
Progression-free survival HR univariate (mRCC patients [1]; MSKCC Poor vs Good): 2.3
Overall survival HR univariate (mRCC patients [1]; Male vs Female): 1.1
Progression-free survival HR univariate (mRCC patients [1]; Male vs Female): 1.1
Median overall survival (mRCC patients [1]; Starting dose 37.5 mg): 19.5 months
Median progression-free survival (mRCC patients [1]; Starting dose 37.5 mg): 8.3 months
Median overall survival (mRCC patients [1]; Starting dose 50 mg): 47.4 months
Median progression-free survival (mRCC patients [1]; Starting dose 50 mg): 17.3 months
Overall survival HR univariate (mRCC patients [1]; Starting dose 37.5 vs ≦37.5 mg): 0.2
Overall survival HR univariate (mRCC patients [1]; Starting dose 50 vs ≦37.5 mg): 0.1
Median overall survival (mRCC patients [1]; Starting dose ≦37.5 mg): 4.6 months
Median progression-free survival (mRCC patients [1]; Starting dose ≦37.5 mg): 1.8 months
Median overall survival (mRCC patients [1]; all 81 first-line patients): 19.5 months
Median progression-free survival (mRCC patients [1]; all 81 first-line patients): 8.1 months
Clinical benefit prevalence (mRCC patients [2]; ABCB1 2677 G/TA Other): 55/79
Clinical benefit prevalence (mRCC patients [2]; ABCB1 2677 G/TA TT): 4/11
Clinical benefit OR multivariate (mRCC patients [2]; ABCB1 2677 TT vs Other): 0.1
Clinical benefit OR univariate (mRCC patients [2]; ABCB1 2677 TT vs Other): 0.3
Clinical benefit prevalence (mRCC patients [2]; ABCB1 3435 C/T CC + CT): 54/78
Clinical benefit prevalence (mRCC patients [2]; ABCB1 3435 C/T TT): 5/12
Clinical benefit OR multivariate (mRCC patients [2]; ABCB1 3435 TT vs CC + CT): 0.2
Clinical benefit OR univariate (mRCC patients [2]; ABCB1 3435 TT vs CC + CT): 0.3
Clinical benefit prevalence (mRCC patients [2]; ABCB1 haplotype Other): 57/82
Clinical benefit prevalence (mRCC patients [2]; ABCB1 haplotype TTT/TTT): 2/8
Clinical benefit OR multivariate (mRCC patients [2]; [4]): 0.1
Clinical benefit OR univariate (mRCC patients [2]; [4]): 0.2
Clinical benefit OR univariate (mRCC patients [2]; Age): 1.0
Clinical benefit prevalence (mRCC patients [2]; Baseline ECOG 0): 20/25
Clinical benefit prevalence (mRCC patients [2]; Baseline ECOG 1): 31/49
Clinical benefit OR univariate (mRCC patients [2]; Baseline ECOG 1 vs 0): 0.4
Clinical benefit prevalence (mRCC patients [2]; Baseline ECOG 2): 5/11
Clinical benefit OR univariate (mRCC patients [2]; Baseline ECOG 2 vs 0): 0.2
Clinical benefit prevalence (mRCC patients [2]; Baseline ECOG 3): 3/5
Clinical benefit OR univariate (mRCC patients [2]; Baseline ECOG 3 vs 0): 0.4
Clinical benefit OR univariate (mRCC patients [2]; Female vs Male): 1.2
Clinical benefit prevalence (mRCC patients [2]; Gender Female): 13/19
Clinical benefit prevalence (mRCC patients [2]; Gender Male): 46/71
Clinical benefit prevalence (mRCC patients [2]; Starting dose 37.5 mg): 49/75
Clinical benefit prevalence (mRCC patients [2]; Starting dose 50 mg): 9/11
Clinical benefit OR univariate (mRCC patients [2]; Starting dose 37.5 vs ≦37.5 mg): 5.7
Clinical benefit prevalence (mRCC patients [2]; Starting dose ≦37.5 mg): 1/4
Clinical benefit prevalence (cases with PR or SD as best response/total in group) (mRCC patients [2]; all patients (n = 90)): 59/90
Dose reductions (patients; ABCB1 1236 T/C TT genotype): Less dose
Dose reductions (patients; ABCB1 2677G/TA TT or TA genotypes): Less dose
HFS (hand-foot syndrome) (patients; ABCB1 TTT haplotype, n = 219, van Erp et al., 2009): HFS increased
HFS (hand-foot syndrome) (patients; [5]): More
Neutropenia (patients; [5]): More
Thrombocytopenia (patients; [5]): More
Any toxicity grade>2 (patients; in vivo): increased with T
Leucopenia (patients; in vivo): increased with T
